Data from patent EP2826473A1, “NOVEL USE OF PATCHOULOL” (Chengdu Huasun Group Inc., Ltd., priority 2012, dated 2013).
Where a name gives a salt, the structure may show the parent alone. Read-outs that look alike come from different tables or passages of the source.

Assays:
Assay type in all cases: cell-based
Klebsiella pneumonia E^+ = assay: in vitro bacteriostatic activity, agar dilution MIC; conditions: Klebsiella pneumoniae
[1] = test system: Staphylococcus aureus MSSA; assay: as above; conditions: Staphylococcus aureus, MSSA
Klebsiella pneumonia E^- = assay: as above
Enterococcus faecalis = assay: as above; conditions: Enterococcus faecalis, read-out: MIC
Staphylococcus aureus = assay: in vitro bacteriostatic activity, agar dilution MIC, quality control strains; conditions: ATCC25923; Staphylococcus aureus ATCC 25923; read-out: MIC
[2] = test system: Staphylococcus aureus MRSA; assay: in vitro bacteriostatic activity, agar dilution MIC; conditions: MRSA
[3] = test system: Staphylococcus epidermidis ATCC 12228; assay: in vitro bacteriostatic activity, agar dilution MIC, quality control strain; conditions: Staphylococcus epidermidis, ATCC12228
Klebsiella pneumonia = assay: in vitro bacteriostatic activity, agar dilution MIC, quality control strain and summary; conditions: Klebsiella pneumoniae, ATCC700603; Klebsiella pneumonia ATCC 700603; read-out: MIC
[4] = test system: Staphylococcus epidermidis MRSE; assay: in vitro bacteriostatic activity, agar dilution MIC
[5] = test system: Staphylococcus epidermidis MSSE; assay: as above
Enterococcus faecium = assay: as above; conditions: Enterococcus faecium, read-out: MIC
Streptococcus pneumoniae = assay: as above
Escherichia coli = assay: in vitro bacteriostatic activity, agar dilution MIC, quality control strain and summary; conditions: ATCC25922; Escherichia coli ATCC 25922; read-out: MIC
Escherichia coli E^- = assay: in vitro bacteriostatic activity, agar dilution MIC

## C[C@H]1COc2c(N3CCN(C)CC3)c(F)cc3c(=O)c(C(=O)O)cn1c23 [levofloxacin, Levofloxacin hydrochloride]
Klebsiella pneumonia E^+; Klebsiella pneumonia E^+ 10-2
  MIC: 12.5 µg/mL
Klebsiella pneumonia E^+; Klebsiella pneumonia E^+ 10-6
  MIC: 0.0125 µg/mL
[1]; Staphylococcus aureus MSSA 10-38, read-out: MIC
  MIC: 0.1 µg/mL
[1]; Staphylococcus aureus MSSA 10-40, read-out: MIC
  MIC: 0.1 µg/mL
[1]; Staphylococcus aureus MSSA 10-41, read-out: MIC
  MIC: 0.1 µg/mL
[1]; Staphylococcus aureus MSSA 12-11
  MIC: 0.125 µg/mL
[1]; Staphylococcus aureus MSSA 12-13
  MIC: 0.125 µg/mL
[1]; Staphylococcus aureus MSSA 12-14
  MIC: 0.125 µg/mL
[1]; Staphylococcus aureus MSSA 12-15
  MIC: 0.125 µg/mL
[1]; Staphylococcus aureus MSSA 12-16, read-out: MIC
  MIC: 0.06 µg/mL
[1]; Staphylococcus aureus MSSA 12-17, read-out: MIC
  MIC: 0.06 µg/mL
[1]; Staphylococcus aureus MSSA 12-18
  MIC: 0.125 µg/mL
[1]; Staphylococcus aureus MSSA 12-19, read-out: MIC
  MIC: 0.06 µg/mL
[1]; Staphylococcus aureus MSSA 12-20
  MIC: 0.125 µg/mL
[1]; Staphylococcus aureus MSSA 12-21
  MIC: 0.125 µg/mL
Klebsiella pneumonia E^-; Klebsiella pneumonia E^- 10-18
  MIC: 0.025 µg/mL
Klebsiella pneumonia E^-; Klebsiella pneumoniae, Klebsiella pneumonia E^- 10-16, read-out: MIC
  MIC: 0.025 µg/mL
Enterococcus faecalis; ATCC29212, Enterococcus faecalis ATCC 29212
  MIC: 0.25 µg/mL
Enterococcus faecalis; ATCC51299, Enterococcus faecalis (high endurance) ATCC 51299
  MIC: 0.25 µg/mL
Enterococcus faecalis; Enterococcus faecalis 12-11
  MIC: 16 µg/mL
Enterococcus faecalis; Enterococcus faecalis 12-12
  MIC: 32 µg/mL
Enterococcus faecalis; Enterococcus faecalis 12-13
  MIC: 8 µg/mL
Enterococcus faecalis; Enterococcus faecalis 12-14
  MIC: 64 µg/mL
Enterococcus faecalis; Enterococcus faecalis 12-17
  MIC: 0.5 µg/mL
Enterococcus faecalis; Enterococcus faecalis 12-18
  MIC: 0.5 µg/mL
Enterococcus faecalis; Enterococcus faecalis 12-19
  MIC: 32 µg/mL
Enterococcus faecalis; Enterococcus faecalis 12-20
  MIC: 4 µg/mL
Enterococcus faecalis; Enterococcus faecalis 12-21
  MIC: 4 µg/mL
Enterococcus faecalis; Enterococcus faecalis 12-22
  MIC: 8 µg/mL
Staphylococcus aureus
  MIC: 0.1 µg/mL
[2]; Staphylococcus aureus MRSA 10-31, read-out: MIC
  MIC: 25 µg/mL
[2]; Staphylococcus aureus MRSA 10-32, read-out: MIC
  MIC: 12.5 µg/mL
[3]
  MIC: 0.125 µg/mL
Klebsiella pneumonia
  MIC: 0.39 µg/mL
[4]; Staphylococcus epidermidis MRSE 10-40, read-out: MIC
  MIC: 0.1 µg/mL
[4]; Staphylococcus epidermidis MRSE 10-44, read-out: MIC
  MIC: 3.1 µg/mL
[5]; Staphylococcus epidermidis
  MIC: 0.125 µg/mL
[5]; Staphylococcus epidermidis MSSE 12-12
  MIC: 0.125 µg/mL
[5]; Staphylococcus epidermidis MSSE 12-16
  MIC: 0.125 µg/mL
[5]; Staphylococcus epidermidis, Staphylococcus epidermidis MSSE 10-43, read-out: MIC
  MIC: 0.1 µg/mL
[5]; Staphylococcus epidermidis, Staphylococcus epidermidis MSSE 10-44, read-out: MIC
  MIC: 3.1 µg/mL
[5]; Staphylococcus epidermidis, Staphylococcus epidermidis MSSE 12-13, read-out: MIC
  MIC: 0.5 µg/mL
[5]; Staphylococcus epidermidis, Staphylococcus epidermidis MSSE 12-14, read-out: MIC
  MIC: 0.5 µg/mL
[5]; Staphylococcus epidermidis, Staphylococcus epidermidis MSSE 12-15, read-out: MIC
  MIC: 0.5 µg/mL
[5]; Staphylococcus epidermidis, Staphylococcus epidermidis MSSE 12-17, read-out: MIC
  MIC: 0.5 µg/mL
[5]; Staphylococcus epidermidis, Staphylococcus epidermidis MSSE 12-18, read-out: MIC
  MIC: 1 µg/mL
[5]; Staphylococcus epidermidis, Staphylococcus epidermidis MSSE 12-19, read-out: MIC
  MIC: 0.5 µg/mL
[5]; Staphylococcus epidermidis, Staphylococcus epidermidis MSSE 12-20, read-out: MIC
  MIC: 1 µg/mL
Enterococcus faecium; ATCC33186, Enterococcus faecium ATCC 33186
  MIC: 1 µg/mL
Enterococcus faecium; Enterococcus faecium 12-7
  MIC: 32 µg/mL
Enterococcus faecium; Enterococcus faecium 12-8
  MIC: 64 µg/mL
Enterococcus faecium; Enterococcus faecium 12-9
  MIC: 32 µg/mL
Enterococcus faecium; Enterococcus faecium 12-10
  MIC: 32 µg/mL
Enterococcus faecium; Enterococcus faecium 12-11
  MIC: 32 µg/mL
Enterococcus faecium; Enterococcus faecium 12-12
  MIC: 64 µg/mL
Enterococcus faecium; Enterococcus faecium 12-13
  MIC: 64 µg/mL
Enterococcus faecium; Enterococcus faecium 12-14
  MIC: 32 µg/mL
Enterococcus faecium; Enterococcus faecium 12-15
  MIC: 32 µg/mL
Enterococcus faecium; Enterococcus faecium 12-16
  MIC: 64 µg/mL
Streptococcus pneumoniae; ATCC49619, Streptococcus pneumonia ATCC 49619
  MIC: 0.1 µg/mL
Streptococcus pneumoniae; Streptococcus pneumonia 12-6
  MIC: 25 µg/mL
Streptococcus pneumoniae; Streptococcus pneumonia 12-7
  MIC: 12.5 µg/mL
Streptococcus pneumoniae; Streptococcus pneumonia 12-8
  MIC: 25 µg/mL
Streptococcus pneumoniae; Streptococcus pneumonia 12-9
  MIC: 25 µg/mL
Streptococcus pneumoniae; Streptococcus pneumonia 12-10
  MIC: 12.5 µg/mL
Streptococcus pneumoniae; Streptococcus pneumoniae 12-1
  MIC: 12.5 µg/mL
Streptococcus pneumoniae; Streptococcus pneumoniae 12-2
  MIC: 25 µg/mL
Streptococcus pneumoniae; Streptococcus pneumoniae 12-3
  MIC: 25 µg/mL
Streptococcus pneumoniae; Streptococcus pneumoniae 12-4
  MIC: 25 µg/mL
Streptococcus pneumoniae; Streptococcus pneumoniae 12-5
  MIC: 25 µg/mL
Escherichia coli
  MIC: < 6 ng/mL
Escherichia coli E^-; Escherichia coli E^- 10-12
  MIC: 0.1 µg/mL
Escherichia coli E^-; Escherichia coli E^- 10-18
  MIC: 12.5 µg/mL
